Entries after “also recorded” stand apart in the source; their conditions may differ. Peptide text beside a SMILES is read from it. * marks the point of attachment. Cbz = O=C(OCc1ccccc1)*; CH2F = FC*

Consider four compounds from patent US20170128518A1, “METHODS AND MATERIALS FOR IDENTIFYING AND TREATING MAMMALS RESISTANT TO PROTEASOME INHIBITOR TREATMENTS” (Mayo Foundation for Medical Education and Research, priority 2014, published 2017).

The test system of series [1] is bortezomib or carfilzomib-resistant MM and WM cell lines. In words: VLX1570-sensitivity screen (Celltiter Glo viability assay). It is filed as cell-based, human. The settings on record: bortezomib/carfilzomib-resistant tumor cells. The source says: FIG. 5 is a graph plotting sensitivity of bortezomib or carfilzomib-resistant tumor cells to drugs with a mechanism directed at targets upstream of the 20S proteasome. An inhibitor of the deubiquitinase (DUB) enzymes located in the 19S cap of the proteasome that are upstream of β5 and β1i, was used.
A general note: ATP-based viability assays read luminescence as a measure of living cells.

The subject of a further series is OPM2 BR derivative. The experiment in a line: MTS assay, OPM2 BR derivative. The settings on record: Homo sapiens, OPM-2. It is filed as cell-based. The source says: (§1) FIGS. 1A-1C show the characterization of bortezomib-resistance (BR) models, established by subjecting plasma cell cancer cell lines (n=6) chronic drug exposure. FIG. 1A is a graph plotting the results of an MTS assay for an OPM2 cell line (representative model).
(§2) To investigate the mechanism of induction of bortezomib resistance, preclinical models of acquired bortezomib resistance (BR) were developed using human MM and WM cell lines.
A general note: Tetrazolium dyes change colour on reduction, which living cells bring about.

In another series the test system is BCWM.1 cell line. The experiment in a line: MTS viability assay, BCWM.1. In kind it is cell-based, human. How it is done: (§3) FIGS. 4A-4D show the characterization of BR WM models, established by subjecting WM cancer cell lines (n=3) chronic drug exposure. […] FIG. 4C is a graph plotting relative fluorescence units in an assay to examine PSMB5 enzyme function by flow cytometry.
(§4) Twenty thousand cells/200 μl in quadruplicates were incubated with serially diluted b-AP15 (1-1000 nmol/l) in 96-well plates at 37° C. for 72 hours. MTS (3-(4,5-dimethylthiazol-2-yl)-5-(3-carboxymethoxyphenyl)-2-(4-sulfophenyl)-2H-tetrazolium) reagent (Molecular Probes, Eugene, Oreg.) was added at 40 μl/well and the plates were further incubated at 37° C. for 3 hours and the developed color was read at 490 nm using a BioTek synergy HT plate reader against blanks with no cells.

For another series, the system named is BCWM.1/BR. The experiment in a line: MTS viability assay, BCWM.1/BR. It is filed as cell-based, human. The method, then: as §3, §4
Another series has as its system MWCL-1 cells. The experiment in a line: MTS viability assay, MWCL-1. It is filed as cell-based, human. The settings on record: Homo sapiens, MTS assay. How it is done: as §4
Series [2] deals with BR human MM and WM cell lines. The experiment in a line: Growth insensitivity of BR cell lines vs WT counterparts. It is filed as cell-based. The settings on record: BR cell lines compared to respective WT counterparts.
Text: as §2

The test system of a further series is MWCL-1/BR. In words: MTS viability assay, MWCL-1/BR. The settings on record: Homo sapiens; MTS assay, MWCL-1/BR. It is filed as cell-based, human. The method, then: as §4
The subject of series [3] is treatment naïve MM patients. The settings on record: bortezomib-based therapies; cited from earlier work.
The subject of another series is RPCI-WM1. The experiment in a line: MTS viability assay, RPCI-WM1. In kind it is cell-based, human. The settings on record: Homo sapiens, MTS assay. The method, then:
as §4

Series [4] addresses T1, 20S proteasome b5 subunit (Homo sapiens, UniProt P28074).
T1 construct: Cells were lysed at 4×10^6 cells/ml in proteasomal activity assay buffer; endogenous in cells; host or cells: BCWM.1, MWCL-1, RPCI-WM1 and their BR subclones (lysates)
T1 sequence (P28074 60-263): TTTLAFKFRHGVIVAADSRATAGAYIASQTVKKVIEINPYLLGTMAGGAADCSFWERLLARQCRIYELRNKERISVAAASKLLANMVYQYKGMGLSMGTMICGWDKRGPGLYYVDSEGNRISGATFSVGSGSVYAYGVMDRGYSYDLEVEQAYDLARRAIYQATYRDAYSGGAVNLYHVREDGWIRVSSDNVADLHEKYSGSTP
The experiment in a line: Proteasomal activity assay, chymotrypsin-like (LLVY-AMC), WM cells. It is filed as biochemical. The settings on record: 10 nmol/l; WT and BR WM cells. The method, then:
FIGS. 10A and 10B are a series of graphs plotting the effect of b-AP15 treatment on 20S proteasome, b5-subunit (chymotrypsin-like) catalytic activity in WT and BR WM cells.
Cells were lysed at 4×10^6 cells/ml in proteasomal activity assay buffer [assay buffer; 25 mmol/1 HEPES buffer, pH7.5 containing 0.5 mmol/1 EDTA, 0.05% Nonidet P-40, 0.01% sodium dodecyl sulfate (SDS)] and immediately used in the assay. Enzyme reactions were performed in 96-well plates with 100 μl of final volume containing […] fluorogenic peptide substrates. The substrates used were LLVY-AMC for chymotrypsin like activity, LLE-AMC for caspase-like activity and LRR-AMC for trypsin-like activity. Reactions were incubated at 37° C. for 1 hour and fluorescence was measured at 360/460 using a BioTek synergy HT plate reader (BioTek, Winooski, Vt.).

In a further series the test system is RPCI-WM1/BR. The experiment in a line: MTS viability assay, RPCI-WM1/BR. It is filed as cell-based, human. The settings on record: Homo sapiens, MTS assay. How it is done: as §4
The target in another series is β5/PSMB5 (Homo sapiens, UniProt P28074). In words: 26S proteasome activity, Suc-LLVY-AMC cleavage, WT and BR plasma cell cancer cells. The settings on record: in the presence of bortezomib. It is filed as biochemical. How it is done: FIGS. 3A-3C are a series of graphs showing that bortezomib resistance is associated with increased proteasomal enzymatic activity.
Studies were performed to investigate whether an increase in β1i and β5 proteins corresponded with increased protease activity. WT and BR cancer cells were incubated with β1i specific (Ac-PAL-AMC substrate) and β5 specific (Suc-LLVY-AMC substrate) fluorogenic peptides (condition details in FIG. 3 description above). β5 chymotryptic activity (primary target of bortezomib) was assessed first and found in BR cells.

Another series concerns MCL patients. The settings on record: bortezomib-based therapies; cited from earlier work.
The subject of the next series is OPM2 cell line (WT). In words: MTS assay, OPM2 WT. It is filed as cell-based. The settings on record: Homo sapiens, OPM-2.
Text: as §1, §2

The subject of a further series is WT and BR WM cells. The experiment in a line: Mitochondrial outer membrane permeability (TMRM), WM cell lines. The settings on record: pre-treatment with pan-caspase inhibitor. In kind it is cell-based, human. How it is done: Cells were treated with different agents for 48 hours and assessed for MOMP using tetramethylrhodamine methyl ester [TMRM] (Life Technologies). TMRM was directly added to the cell cultures at 100 nmol/1 concentrations and incubated at 37° C. in the dark for 15 minutes. At the end of the incubation, cells were washed twice with cold PBS containing 2% FBS and analyzed. The cells were washed for fluorescence (FL2) and analyzed by BD Accuri, the C6 flow cytometer and its software. Data from at least 20,000 events per sample were collected and analyzed. TMRM-negative (%) cells were calculated to determine % MOMP.

`C=CC(=O)N1CC/C(=C\c2ccc(F)c([N+](=O)[O-])c2)C(=O)/C(=C/c2ccc(F)c([N+](=O)[O-])c2)C1` [VLX1570]: the cytotoxicity result in series [1] is reported as “comparable cytotoxicity”.
As for `CC(C)C[C@H](NC(=O)[C@H](Cc1ccccc1)NC(=O)c1cnccn1)B(O)O` [bortezomib], the IC50 in the series on OPM2 BR derivative was over 50 nM; in the series with BCWM.1 cell line (Homo sapiens, BCWM1, MTS assay), 18 nM; in the series with BCWM.1 cell line (MTS assay) it was 11.4 nM; in the series with BCWM.1/BR (Homo sapiens, BCWM1, MTS assay) it was over 1000 nM; in the series with BCWM.1/BR (MTS assay), 720 nM; in the series with MWCL-1 cells it was 16.6 nM. The IC50 in the series with MWCL-1/BR is 65.2 nM; in the series with RPCI-WM1, 27 nM; in the series with RPCI-WM1/BR, 125 nM; in the series on OPM2 cell line (WT) it was 6.14 nM. Moreover, the “increase in growth insensitivity, BR vs WT” value in series [2] is over 100 fold. Also, the response rate result is reported as “about 100%” in series [3] and “about 75%” with MCL patients. Further, the “chymotrypsin-like activity (LLVY) of the b5 subunit” value in [4] is listed as “significantly diminished”. The “chymotryptic β5 activity” value at β5/PSMB5 is given as “decreased; also recorded: inhibited the chymotryptic activity; also recorded: nearly abrogated”.
`CC(C)C[C@H](NC(=O)[C@H](CCc1ccccc1)NC(=O)CN1CCOCC1)C(=O)N[C@@H](Cc1ccccc1)C(=O)N[C@@H](CC(C)C)C(=O)[C@@]1(C)CO1` [carfilzomib]: the “chymotrypsin-like activity (LLVY) of the b5 subunit” value in [4] is “significantly diminished”.
`COC(=O)C[C@H](NC(=O)[C@H](C)NC(=O)[C@@H](NC(=O)OCc1ccccc1)C(C)C)C(=O)CF` [z.VAD.fmk] (Cbz-Val-Ala-Asp(OMe)-CH2F): the “MOMP in b-AP15 co-treated WM cells” value in the series on WT and BR WM cells is “significantly reduced MOMP”.

The term IC50 denotes the concentration needed to halve the response being measured.
